pIC50: −log10 of the molar value.
Tested on: BV-2
Assay: Ant-inflammatory LPS-induced mouse BV2 cells assessed as reduction in NO production after 24 hrs by Griess reagent based assay
Format: functional, cell-based
Details: BV-2, 24 h

Row | SMILES | pIC50
1 | COc1ccc2cc1Oc1ccc(cc1)C[C@H]1c3c(cc4c(c3Oc3cc5c(cc3OC)CCN(C=O)[C@@H]5C2)OCO4)CCN1C | 4.92
2 | COC1=C2[C@H]3Cc4ccc(OC)c(O)c4[C@]2(CCN3C=O)C[C@H](OC(C)=O)[C@@H]1OC(C)=O | < 4.00
3 | COC1=C2[C@H]3Cc4ccc(OC)c(O)c4[C@]2(CCN3C=O)C[C@H](O)[C@@H]1O | 4.43
4 | COC1=C2[C@H]3Cc4ccc(OC)c(O)c4[C@]2(CCN3C=O)C[C@H](OC(C)=O)[C@@H]1O | < 4.00
5 | COc1cc2c3c(c1OC)C1(C=CC(=O)C=C1)C[C@H]3N(C=O)CC2 | < 4.00
6 | COc1ccc2cc1Oc1ccc(cc1)C[C@H]1c3cc(c(OC)cc3CCN1C=O)Oc1c(OC)c(OC)cc3c1[C@@H](C2)N(C)CC3 | 4.90
7 | CN(C)c1ccc(O)c2c1C[C@H]1C[C@H]3[C@H](N(C)C)C(O)=C(C(N)=O)C(=O)[C@@]3(O)C(O)=C1C2=O [MINOCYCLINE] | 4.76
8 | COC1=C2[C@H]3Cc4ccc(OC)c(O)c4[C@]2(CCN3C=O)C[C@H](O)[C@@H]1OC(C)=O | < 4.00
9 | O=CN1CCc2cc3c(c4c2[C@H]1Cc1cc(O)ccc1-4)OCO3 | < 4.00
